# Results reported in PMC4823954, “From fighting depression to conquering tumors: a novel tricyclic thiazepine compound as a tubulin polymerization inhibitor” (Cell Death & Disease, 2016).
# Experiments:
# Assay in all cases: KINOMEscan
# Format in all cases: binding
# Conditions in all cases: read-out: % Ctrl
# ABL1-phosphorylated = biological target: T1, ABL1-phosphorylated (Homo sapiens, UniProt P00519)
# T1 construct: purchased DiscoveRx KINOMEscan
# Method in brief: (§1)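 Competition binding panel of 442 non-mutant kinases: test compound at 5 and 10 μM competed with an active-site-directed ligand for 1 h with shaking. Bound kinase was eluted with 0.5 μM ligand and quantified by qPCR; %Ctrl = (compound − positive control)/(DMSO − positive control) × 100, lower meaning tighter binding.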
# CAMK1 = biological target: T2, CAMK1 (Homo sapiens, UniProt Q14012)
# T2 construct: purchased DiscoveRx KINOMEscan
# Method in brief: as §1
# CAMKK1 = biological target: T3, CAMKK1 (Homo sapiens, UniProt Q8N5S9)
# T3 construct: purchased DiscoveRx KINOMEscan
# Method in brief: as §1
# CDKL3 = biological target: T4, CDKL3 (Homo sapiens, UniProt Q8IVW4)
# T4 construct: purchased DiscoveRx KINOMEscan
# T4 sequence (Q8IVW4 whole entry): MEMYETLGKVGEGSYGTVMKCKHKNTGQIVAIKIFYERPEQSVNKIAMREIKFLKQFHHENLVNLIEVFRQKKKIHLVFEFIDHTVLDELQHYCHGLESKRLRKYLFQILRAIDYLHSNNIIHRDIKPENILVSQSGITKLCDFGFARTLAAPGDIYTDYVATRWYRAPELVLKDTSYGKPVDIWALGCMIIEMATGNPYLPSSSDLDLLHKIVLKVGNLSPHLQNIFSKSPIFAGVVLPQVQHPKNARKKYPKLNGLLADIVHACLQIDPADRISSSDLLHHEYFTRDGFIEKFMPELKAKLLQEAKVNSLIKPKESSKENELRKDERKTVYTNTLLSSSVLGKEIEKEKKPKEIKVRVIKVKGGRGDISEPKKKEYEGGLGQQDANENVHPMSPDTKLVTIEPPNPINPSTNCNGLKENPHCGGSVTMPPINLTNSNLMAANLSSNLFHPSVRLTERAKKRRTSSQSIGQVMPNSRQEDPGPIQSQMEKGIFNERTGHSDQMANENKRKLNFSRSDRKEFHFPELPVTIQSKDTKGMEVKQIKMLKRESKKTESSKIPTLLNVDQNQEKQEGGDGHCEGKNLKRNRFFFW
# Method in brief: as §1
# CSK = biological target: T5, CSK (Homo sapiens, UniProt P41240)
# T5 construct: purchased DiscoveRx KINOMEscan
# Method in brief: as §1
# CSNK1A1L = biological target: T6, CSNK1A1L (Homo sapiens, UniProt Q8N752)
# T6 construct: purchased DiscoveRx KINOMEscan
# Method in brief: as §1
# CSNK1D = biological target: T7, CSNK1D (Homo sapiens, UniProt P48730)
# T7 construct: purchased DiscoveRx KINOMEscan
# T7 sequence (P48730 whole entry): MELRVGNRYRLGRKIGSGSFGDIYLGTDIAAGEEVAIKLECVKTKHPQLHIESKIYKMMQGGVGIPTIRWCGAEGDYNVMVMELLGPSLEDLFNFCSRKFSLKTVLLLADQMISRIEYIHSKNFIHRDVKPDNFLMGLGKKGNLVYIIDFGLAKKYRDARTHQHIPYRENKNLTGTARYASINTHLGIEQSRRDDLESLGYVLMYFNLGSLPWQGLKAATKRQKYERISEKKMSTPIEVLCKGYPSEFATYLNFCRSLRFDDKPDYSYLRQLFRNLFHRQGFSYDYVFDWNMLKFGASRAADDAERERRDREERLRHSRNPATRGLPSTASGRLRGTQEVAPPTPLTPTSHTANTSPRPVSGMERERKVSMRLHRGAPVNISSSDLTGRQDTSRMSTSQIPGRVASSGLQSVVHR
# Method in brief: as §1
# CSNK1G3 = biological target: T8, CSNK1G3 (Homo sapiens, UniProt Q9Y6M4)
# T8 construct: purchased DiscoveRx KINOMEscan
# Method in brief: as §1
# EPHA6 = biological target: T9, EPHA6 (Homo sapiens, UniProt Q9UF33)
# T9 construct: purchased DiscoveRx KINOMEscan
# T9 sequence (Q9UF33 23-1036): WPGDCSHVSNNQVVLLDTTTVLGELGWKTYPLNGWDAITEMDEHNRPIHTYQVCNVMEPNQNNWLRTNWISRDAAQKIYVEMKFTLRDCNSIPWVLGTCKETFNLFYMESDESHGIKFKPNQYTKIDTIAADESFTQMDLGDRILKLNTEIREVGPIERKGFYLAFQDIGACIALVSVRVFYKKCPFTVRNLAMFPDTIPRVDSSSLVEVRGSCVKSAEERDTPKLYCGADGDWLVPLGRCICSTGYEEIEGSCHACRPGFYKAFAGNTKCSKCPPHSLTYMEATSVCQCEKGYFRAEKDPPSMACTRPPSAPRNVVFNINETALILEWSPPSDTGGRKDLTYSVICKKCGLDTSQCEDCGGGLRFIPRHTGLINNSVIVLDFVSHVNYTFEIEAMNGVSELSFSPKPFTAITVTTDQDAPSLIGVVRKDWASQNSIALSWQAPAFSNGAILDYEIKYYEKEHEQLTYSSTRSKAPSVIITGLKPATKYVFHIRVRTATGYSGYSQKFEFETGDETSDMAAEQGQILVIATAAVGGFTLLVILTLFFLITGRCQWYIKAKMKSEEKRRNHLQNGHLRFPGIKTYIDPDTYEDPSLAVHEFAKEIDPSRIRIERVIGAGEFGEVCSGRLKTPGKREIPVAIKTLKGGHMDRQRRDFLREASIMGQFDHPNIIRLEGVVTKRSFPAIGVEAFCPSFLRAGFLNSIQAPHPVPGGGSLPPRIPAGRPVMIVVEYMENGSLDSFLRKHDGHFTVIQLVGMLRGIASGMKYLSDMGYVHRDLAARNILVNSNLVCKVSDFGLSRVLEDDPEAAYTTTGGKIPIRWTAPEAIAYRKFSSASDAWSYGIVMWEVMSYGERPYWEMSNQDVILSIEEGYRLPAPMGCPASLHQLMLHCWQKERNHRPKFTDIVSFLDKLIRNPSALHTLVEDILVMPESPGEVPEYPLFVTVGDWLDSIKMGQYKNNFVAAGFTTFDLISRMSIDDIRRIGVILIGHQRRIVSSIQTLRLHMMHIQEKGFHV
# Method in brief: as §1
# FER = biological target: T10, FER (Homo sapiens, UniProt P16591)
# T10 construct: purchased DiscoveRx KINOMEscan
# Method in brief: as §1
# FLT3(N841I) = biological target: T11, FLT3(N841I) (Homo sapiens, UniProt P36888, N841I)
# T11 construct: purchased DiscoveRx KINOMEscan
# FYN = biological target: T12, FYN (Homo sapiens, UniProt P06241)
# T12 construct: purchased DiscoveRx KINOMEscan
# Method in brief: as §1
# HIPK1 = biological target: T13, HIPK1 (Homo sapiens, UniProt Q86Z02)
# T13 construct: purchased DiscoveRx KINOMEscan
# Method in brief: as §1
# LATS1 = biological target: T14, LATS1 (Homo sapiens, UniProt O95835)
# T14 construct: purchased DiscoveRx KINOMEscan
# Method in brief: as §1
# LYN = biological target: T15, LYN (Homo sapiens, UniProt P07948)
# T15 construct: purchased DiscoveRx KINOMEscan
# Method in brief: as §1
# MRCKA = biological target: T16, MRCKA (Homo sapiens, UniProt Q5VT25)
# T16 construct: purchased DiscoveRx KINOMEscan
# Method in brief: as §1
# MUSK = biological target: T17, MUSK (Homo sapiens, UniProt O15146)
# T17 construct: purchased DiscoveRx KINOMEscan
# Method in brief: as §1
# PIK3CA(E542K) = biological target: T18, PIK3CA(E542K) (Homo sapiens, UniProt P42336, E542K)
# T18 construct: purchased DiscoveRx KINOMEscan
# PIK3CA(H1047Y) = biological target: T19, PIK3CA(H1047Y) (Homo sapiens, UniProt P42336, H1047Y)
# T19 construct: purchased DiscoveRx KINOMEscan
# PIK4CB = biological target: T20, PIK4CB (Homo sapiens, UniProt Q9UBF8)
# T20 construct: purchased DiscoveRx KINOMEscan
# Method in brief: as §1
# PIM1 = biological target: T21, PIM1 (Homo sapiens, UniProt P11309)
# T21 construct: purchased DiscoveRx KINOMEscan
# Method in brief: as §1
# PRKD1 = biological target: T22, PRKD1 (Homo sapiens, UniProt Q15139)
# T22 construct: purchased DiscoveRx KINOMEscan
# T22 sequence (Q15139 whole entry): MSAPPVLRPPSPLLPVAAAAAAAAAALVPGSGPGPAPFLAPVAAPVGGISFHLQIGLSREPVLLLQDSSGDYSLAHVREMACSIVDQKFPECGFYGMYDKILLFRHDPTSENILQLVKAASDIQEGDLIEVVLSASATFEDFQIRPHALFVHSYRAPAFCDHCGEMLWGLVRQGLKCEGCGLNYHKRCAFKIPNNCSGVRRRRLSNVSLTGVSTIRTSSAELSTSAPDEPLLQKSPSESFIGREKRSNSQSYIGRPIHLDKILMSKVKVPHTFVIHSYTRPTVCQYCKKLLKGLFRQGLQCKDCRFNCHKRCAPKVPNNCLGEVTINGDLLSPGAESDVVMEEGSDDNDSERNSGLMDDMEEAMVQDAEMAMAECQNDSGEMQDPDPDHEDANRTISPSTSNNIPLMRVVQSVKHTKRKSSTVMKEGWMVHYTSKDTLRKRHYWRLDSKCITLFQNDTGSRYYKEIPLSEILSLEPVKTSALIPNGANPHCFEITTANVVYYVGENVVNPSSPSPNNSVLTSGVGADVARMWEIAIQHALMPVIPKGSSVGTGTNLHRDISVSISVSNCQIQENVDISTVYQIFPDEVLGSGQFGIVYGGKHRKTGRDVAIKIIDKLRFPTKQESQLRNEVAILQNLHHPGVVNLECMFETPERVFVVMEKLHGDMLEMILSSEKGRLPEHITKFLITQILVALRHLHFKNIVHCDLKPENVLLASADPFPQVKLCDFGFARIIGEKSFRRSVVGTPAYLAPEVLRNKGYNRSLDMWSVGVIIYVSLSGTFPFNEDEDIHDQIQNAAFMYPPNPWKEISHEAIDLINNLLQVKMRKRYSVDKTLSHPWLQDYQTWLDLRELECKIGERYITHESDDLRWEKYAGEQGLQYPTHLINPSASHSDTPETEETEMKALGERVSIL
# Method in brief: as §1
# QSK = biological target: T23, QSK (Homo sapiens, UniProt Q9Y2K2)
# T23 construct: purchased DiscoveRx KINOMEscan
# Method in brief: as §1
# RAF1 = biological target: T24, RAF1 (Homo sapiens, UniProt P04049)
# T24 construct: purchased DiscoveRx KINOMEscan
# Method in brief: as §1
# RET(V804M) = biological target: T25, RET(V804M) (Homo sapiens, UniProt P07949, V804M)
# T25 construct: purchased DiscoveRx KINOMEscan
# RIOK3 = biological target: T26, RIOK3 (Homo sapiens, UniProt O14730)
# T26 construct: purchased DiscoveRx KINOMEscan
# Method in brief: as §1
# [1] = biological target: T27, RSK1(Kin.Dom.2-C-terminal) (Homo sapiens, UniProt Q15418)
# T27 construct: RSK1(Kin.Dom.2-C-terminal); purchased DiscoveRx KINOMEscan
# T27 sequence (Q15418 392-735 limits assumed): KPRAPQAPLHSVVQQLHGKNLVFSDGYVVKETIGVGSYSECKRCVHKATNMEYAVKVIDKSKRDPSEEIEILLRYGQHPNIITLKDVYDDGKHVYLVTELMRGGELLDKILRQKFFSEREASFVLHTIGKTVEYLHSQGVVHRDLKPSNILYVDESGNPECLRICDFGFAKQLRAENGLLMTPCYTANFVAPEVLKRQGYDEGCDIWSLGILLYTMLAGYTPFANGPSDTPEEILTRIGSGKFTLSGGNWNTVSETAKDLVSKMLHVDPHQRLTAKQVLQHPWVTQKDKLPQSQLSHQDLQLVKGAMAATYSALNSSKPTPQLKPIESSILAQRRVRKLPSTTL
# Method in brief: as §1
# TAOK2 = biological target: T28, TAOK2 (Homo sapiens, UniProt Q9UL54)
# T28 construct: purchased DiscoveRx KINOMEscan
# Method in brief: as §1
# TIE1 = biological target: T29, TIE1 (Homo sapiens, UniProt P35590)
# T29 construct: purchased DiscoveRx KINOMEscan
# Method in brief: as §1
# YES = biological target: T30, YES (Homo sapiens, UniProt P07947)
# T30 construct: purchased DiscoveRx KINOMEscan
# T30 sequence (P07947 whole entry): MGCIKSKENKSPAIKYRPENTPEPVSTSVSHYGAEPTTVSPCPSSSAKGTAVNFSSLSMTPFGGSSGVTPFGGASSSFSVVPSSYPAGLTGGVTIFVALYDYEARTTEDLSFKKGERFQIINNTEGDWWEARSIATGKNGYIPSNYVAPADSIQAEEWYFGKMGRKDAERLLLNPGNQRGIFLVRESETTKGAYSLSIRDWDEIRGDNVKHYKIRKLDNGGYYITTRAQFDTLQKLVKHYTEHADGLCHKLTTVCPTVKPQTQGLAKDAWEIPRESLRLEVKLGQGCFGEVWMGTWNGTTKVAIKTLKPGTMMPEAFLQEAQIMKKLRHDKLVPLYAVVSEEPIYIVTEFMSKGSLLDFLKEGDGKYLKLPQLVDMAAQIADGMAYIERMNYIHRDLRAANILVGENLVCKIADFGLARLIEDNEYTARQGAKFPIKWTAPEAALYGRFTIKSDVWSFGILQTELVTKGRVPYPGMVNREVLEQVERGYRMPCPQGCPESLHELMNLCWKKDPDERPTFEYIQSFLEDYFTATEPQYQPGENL
# Method in brief: as §1
# T1 sequence (P00519 whole entry): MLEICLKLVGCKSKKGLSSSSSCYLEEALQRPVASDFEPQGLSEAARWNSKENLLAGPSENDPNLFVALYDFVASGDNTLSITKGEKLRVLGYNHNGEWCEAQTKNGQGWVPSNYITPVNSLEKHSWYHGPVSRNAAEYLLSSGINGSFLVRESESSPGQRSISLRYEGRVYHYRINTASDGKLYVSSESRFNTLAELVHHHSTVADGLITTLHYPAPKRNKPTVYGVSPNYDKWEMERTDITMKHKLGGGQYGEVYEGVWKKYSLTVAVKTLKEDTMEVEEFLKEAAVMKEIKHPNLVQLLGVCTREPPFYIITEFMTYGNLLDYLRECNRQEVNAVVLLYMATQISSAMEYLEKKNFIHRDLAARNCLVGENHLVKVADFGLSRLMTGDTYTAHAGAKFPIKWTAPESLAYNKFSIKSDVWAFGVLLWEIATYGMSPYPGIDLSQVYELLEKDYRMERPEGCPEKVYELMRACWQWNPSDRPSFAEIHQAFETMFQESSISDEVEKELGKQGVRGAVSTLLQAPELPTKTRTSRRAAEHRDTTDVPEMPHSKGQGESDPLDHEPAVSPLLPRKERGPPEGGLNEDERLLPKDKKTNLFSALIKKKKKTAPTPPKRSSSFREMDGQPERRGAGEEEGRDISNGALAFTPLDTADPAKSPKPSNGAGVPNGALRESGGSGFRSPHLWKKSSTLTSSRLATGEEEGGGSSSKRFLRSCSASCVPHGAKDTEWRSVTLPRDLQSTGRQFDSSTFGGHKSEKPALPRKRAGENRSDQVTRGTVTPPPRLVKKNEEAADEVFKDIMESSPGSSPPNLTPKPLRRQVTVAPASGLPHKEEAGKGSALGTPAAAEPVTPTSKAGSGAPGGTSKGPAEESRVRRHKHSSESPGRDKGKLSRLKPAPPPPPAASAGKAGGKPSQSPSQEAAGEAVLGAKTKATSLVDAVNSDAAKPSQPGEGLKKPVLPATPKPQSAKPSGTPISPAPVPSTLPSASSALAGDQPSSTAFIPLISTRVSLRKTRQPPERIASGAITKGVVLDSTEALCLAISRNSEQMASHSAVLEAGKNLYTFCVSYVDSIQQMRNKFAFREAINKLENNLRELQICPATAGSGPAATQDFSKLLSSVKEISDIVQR
smiles,measurement,setting,value
"Cc1ccc(C2=Nc3cccnc3S(=O)(=O)c3ccccc32)cc1 [TBPT, 6-(p-tolyl)benzo[f] pyrido[2,3-b][1,4] thiazepine 11,11-dioxide]",remaining binding at 5 µM,ABL1-phosphorylated; 5 μM,72%
same,remaining binding at 10 µM,ABL1-phosphorylated; 10 μM,97%
same,remaining binding at 5 µM,CAMK1; 5 μM,96%
same,remaining binding at 10 µM,CAMK1; 10 μM,98%
same,remaining binding at 5 µM,CAMKK1; 5 μM,100%
same,remaining binding at 10 µM,CAMKK1; 10 μM,92%
same,remaining binding at 5 µM,CDKL3; 5 μM,77%
same,remaining binding at 10 µM,CDKL3; 10 μM,74%
same,remaining binding at 5 µM,CSK; 5 μM,96%
same,remaining binding at 10 µM,CSK; 10 μM,100%
same,remaining binding at 5 µM,CSNK1A1L; 5 μM,100%
same,remaining binding at 10 µM,CSNK1A1L; 10 μM,91%
same,remaining binding at 5 µM,CSNK1D; 5 μM,98%
same,remaining binding at 10 µM,CSNK1D; 10 μM,90%
same,remaining binding at 5 µM,CSNK1G3; 5 μM,100%
same,remaining binding at 10 µM,CSNK1G3; 10 μM,98%
same,remaining binding at 5 µM,EPHA6; 5 μM,98%
same,remaining binding at 10 µM,EPHA6; 10 μM,92%
same,remaining binding at 5 µM,FER; 5 μM,93%
same,remaining binding at 10 µM,FER; 10 μM,100%
same,remaining binding at 5 µM,FLT3(N841I); 5 μM,85%
same,remaining binding at 10 µM,FLT3(N841I); 10 μM,100%
same,remaining binding at 5 µM,FYN; 5 μM,85%
same,remaining binding at 10 µM,FYN; 10 μM,95%
same,remaining binding at 5 µM,HIPK1; 5 μM,71%
same,remaining binding at 10 µM,HIPK1; 10 μM,63%
same,remaining binding at 5 µM,LATS1; 5 μM,100%
same,remaining binding at 10 µM,LATS1; 10 μM,100%
same,remaining binding at 5 µM,LYN; 5 μM,87%
same,remaining binding at 10 µM,LYN; 10 μM,100%
same,remaining binding at 5 µM,MRCKA; 5 μM,89%
same,remaining binding at 10 µM,MRCKA; 10 μM,99%
same,remaining binding at 5 µM,MUSK; 5 μM,100%
same,remaining binding at 10 µM,MUSK; 10 μM,100%
same,remaining binding at 5 µM,PIK3CA(E542K); 5 μM,93%
same,remaining binding at 10 µM,PIK3CA(E542K); 10 μM,97%
same,remaining binding at 5 µM,PIK3CA(H1047Y); 5 μM,95%
same,remaining binding at 10 µM,PIK3CA(H1047Y); 10 μM,100%
same,remaining binding at 5 µM,PIK4CB; 5 μM,100%
same,remaining binding at 10 µM,PIK4CB; 10 μM,93%
same,remaining binding at 5 µM,PIM1; 5 μM,91%
same,remaining binding at 10 µM,PIM1; 10 μM,90%
same,remaining binding at 5 µM,PRKD1; 5 μM,100%
same,remaining binding at 10 µM,PRKD1; 10 μM,78%
same,remaining binding at 5 µM,QSK; 5 μM,76%
same,remaining binding at 10 µM,QSK; 10 μM,100%
same,remaining binding at 5 µM,RAF1; 5 μM,100%
same,remaining binding at 10 µM,RAF1; 10 μM,91%
same,remaining binding at 5 µM,RET(V804M); 5 μM,84%
same,remaining binding at 10 µM,RET(V804M); 10 μM,96%
same,remaining binding at 5 µM,RIOK3; 5 μM,100%
same,remaining binding at 10 µM,RIOK3; 10 μM,100%
same,remaining binding at 5 µM,[1]; 5 μM,100%
same,remaining binding at 10 µM,[1]; 10 μM,98%
same,remaining binding at 5 µM,TAOK2; 5 μM,90%
same,remaining binding at 10 µM,TAOK2; 10 μM,67%
same,remaining binding at 5 µM,TIE1; 5 μM,100%
same,remaining binding at 10 µM,TIE1; 10 μM,98%
same,remaining binding at 5 µM,YES; 5 μM,100%
same,remaining binding at 10 µM,YES; 10 μM,100%
